The structures appear in SMILES notation. “Also recorded” adds a separate entry of the source.

What is called inhibition is the drop in the measured response relative to a control, in per cent. Higher therefore signals a response far below the control.

The target of assay [1] is T1, PTGR2 (Homo sapiens, UniProt Q8N8N7). The experiment in a line: MS-based (SILAC) competition of FFF probe 8 labeling of endogenous PTGR2 in HEK293T cells. It is filed as binding. On the procedure:
(§1) For gel-based experiments, cells were grown in 6-well plates to ˜90% confluence at the time of treatment. Cells were carefully washed with Dulbecco's phosphate buffered saline (DPBS) and replenished with fresh serum-free media containing indicated FFF probe, and, if applicable, competitors or DMSO vehicle (1 mL). Following incubation at 37° C. for 30 min, cells were directly exposed to 365 nm light for 10 min. For no UV experiments, cells were incubated at 4° C. for 10 min under ambient light. For MS-based experiments, cell labeling was performed in a similar manner as described above. Modifications to this protocol included using isotopically ‘light’ and ‘heavy’ SILAC cells that were grown to near complete confluence prior to treatment in 10 cm plates. In probe-versus-control probe and probe-versus-probe experiments, isotopically light cells were treated with indicated fragment probe, while the heavy cells were treated with control probe (1), or additional FFF probe to be compared, at indicated concentrations. […]
(§2) Cells pellets were lysed in cold DPBS (100-500 µL) using a Branson Sonifier probe sonicator (10 pulses, 30% duty cycle, output setting=4). […] Protein concentration was determined using the DC Protein Assay (Bio-Rad) and absorbance read using a Tecan, Infinite F500 plate reader following manufacturer's instructions. […]

Assay [2] deals with T2, ZADH2 (Homo sapiens, UniProt Q8N4Q0).
T2 construct: endogenous in cells; host or cells: HEK293T
T2 sequence (Q8N4Q0 1-377): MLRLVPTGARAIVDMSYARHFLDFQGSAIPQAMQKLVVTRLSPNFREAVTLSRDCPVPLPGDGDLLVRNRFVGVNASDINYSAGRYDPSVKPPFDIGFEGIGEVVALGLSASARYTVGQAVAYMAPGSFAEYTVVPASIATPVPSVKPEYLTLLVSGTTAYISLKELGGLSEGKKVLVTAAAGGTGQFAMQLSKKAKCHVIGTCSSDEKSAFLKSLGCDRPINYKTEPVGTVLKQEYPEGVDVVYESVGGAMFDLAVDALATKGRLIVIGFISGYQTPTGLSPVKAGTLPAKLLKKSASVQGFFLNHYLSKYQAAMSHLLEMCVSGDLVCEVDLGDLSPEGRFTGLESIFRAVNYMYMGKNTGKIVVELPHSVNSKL
Briefly: MS-based (SILAC) competition of FFF probe 8 labeling of ZADH2 in HEK293T cells. It is filed as binding. The following applies: competition with FFF probe 8 (20 μM). As for the experimental part:
as §1, §2

Assay [3] has as its target T1, PTGR2. Briefly: PPARγ luciferase reporter assay in PTGR2-transfected HEK293T cells (15-keto-PGE2-dependent). It is filed as cell-based. The following applies: cells recombinantly expressing PTGR2. As for the experimental part: HEK293T cells were transiently co-transfected using Polyethylenimine (Sigma) with a UAS-Luciferase reporter and a vector expressing the heterologous GAL4 DNA binding domain (DBD) or a GAL4 DNA binding domain::PPARγ ligand binding domain (LBD) chimeric protein, and full-length PTGR2. 24 hr after transfection, cells were treated either with vehicle (DMSO), 15k-PGE2 (20 μM), or fragment compounds. Rosiglitazone (2 μM), a synthetic PPARγ ligand, was used as control. 16 hr after incubation, cells were lysed in Cell Culture Lysis Reagent (Promega) and luciferase activity measured using the Luciferase Assay System (Promega).

T1 sequence (Q8N8N7 whole entry): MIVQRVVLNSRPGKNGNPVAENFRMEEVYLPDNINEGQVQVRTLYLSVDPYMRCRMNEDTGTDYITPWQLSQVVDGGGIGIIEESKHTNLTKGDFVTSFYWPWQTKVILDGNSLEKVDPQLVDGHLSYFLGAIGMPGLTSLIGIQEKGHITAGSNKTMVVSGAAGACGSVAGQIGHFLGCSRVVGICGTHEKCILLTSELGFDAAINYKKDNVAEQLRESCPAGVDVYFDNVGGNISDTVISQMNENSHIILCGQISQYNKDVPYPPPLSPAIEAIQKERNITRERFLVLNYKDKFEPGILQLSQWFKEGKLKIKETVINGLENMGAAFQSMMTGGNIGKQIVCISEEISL

Regarding `COc1ccccc1N1CCN(C(=O)Cc2ccccc2)CC1` [Compound 22, 1-(4-(2-Methoxyphenyl)piperazin-1-yl)-2-phenylethan-1-one], the inhibition at 0.5 µM in assay [1] (500 nM) is roughly 80%. In addition, the “inhibition of FFF 8 labeling of endogenous PTGR2” value in assay [1] (5 μM) is given as “complete inhibition”. The “cross-reactivity with ZADH2” value in assay [2] is reported as “did not cross-react”. For the same compound, the “15-keto-PGE2-dependent PPARγ transcriptional activity” value in assay [3] is listed as “increased; also recorded: concentration-dependent rescue”.

The values are drawn from patent publication US11535597B2, “Photoreactive ligands and uses thereof” (The Scripps Research Institute, priority 2017, dated 2022).
